In BindingDB's records for doi:10.7270/Q2J96B77 (D3R/Abbott, 2020) one finds IC50 data, which are given here for 41 molecules.

In the test the target is Cathepsin S (Homo sapiens, UniProt P25774). Description: D3R2020.
Cathepsin S, sequence (P25774 whole entry): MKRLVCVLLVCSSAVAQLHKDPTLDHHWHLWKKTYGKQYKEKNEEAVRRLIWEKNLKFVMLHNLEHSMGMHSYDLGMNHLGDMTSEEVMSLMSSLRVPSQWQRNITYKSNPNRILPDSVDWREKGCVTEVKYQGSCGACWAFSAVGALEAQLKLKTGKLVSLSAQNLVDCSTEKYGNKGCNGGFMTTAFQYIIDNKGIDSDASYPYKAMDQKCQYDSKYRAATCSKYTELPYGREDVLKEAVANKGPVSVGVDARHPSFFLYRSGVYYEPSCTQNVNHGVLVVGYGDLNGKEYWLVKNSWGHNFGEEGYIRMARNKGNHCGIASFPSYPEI
For `NC(=O)N1CCc2c(c(-c3ccc(Cl)c(C#Cc4ccc(Cl)c(CN5CCOCC5)c4)c3)nn2CCCN2CCCCC2)C1` [CatS_84], inhibition was half-maximal at 35 nM (IC50).
Next, `CC(C)=CC(=O)NCc1cc(-c2nn(CCCN3CCOCC3)c3c2CN(C(=O)CC2CCN(C(=O)OC(C)(C)C)CC2)CC3)ccc1C(F)(F)F` [CatS_18]: 170 nM.
Under `CC1(C)CCN(C[C@H](O)Cn2nc(-c3ccc(C(F)(F)F)c(CNCc4ccc(F)cc4)c3)c3c2CCN(S(C)(=O)=O)C3)CC1` [CatS_8] stands 74 nM; under `C[C@H]1COCCN1CCCn1nc(-c2ccc(Cl)c(C#Cc3ccc(CNCc4ccc(Cl)cc4)cc3)c2)c2c1CCN(S(C)(=O)=O)C2` [CatS_98], 76 nM; under `CS(=O)(=O)N1CCc2c(c(-c3ccc(Cl)c(C#Cc4cccc(CNCc5ccc(Cl)cc5)c4)c3)nn2CCCN2CCN(c3ccccc3)CC2)C1` [CatS_78], 65 nM.
For the molecule `CS(=O)(=O)N1CCc2c(c(-c3ccc(Cl)c(C#Cc4ccc(CNCc5ccc(Cl)cc5)cc4)c3)nn2CCCN2CCN(C3CC3)CC2)C1` [CatS_17], the IC50 was determined as 64 nM. The IC50 values of the last two molecules are within 1.5-fold of each other.
`CC(C)(C)OC(=O)N1CCC(C2CCN(C[C@H](O)Cn3nc(-c4ccc(Cl)c(CCc5ccc(Cl)cc5)c4)c4c3CCN(C(N)=O)C4)CC2)CC1` [CatS_121] yielded an IC50 of 25 nM.
`NC(=O)C(=O)N1CCc2c(c(-c3ccc(Cl)c(C#Cc4ccc(Cl)c(CN[C@@H](CO)c5ccccc5)c4)c3)nn2CCCN2CCSCC2)C1` [CatS_88] gave an IC50 of 25 nM.
Under `CC(C)(O)CNCc1cc(C#Cc2cc(-c3nn(CCCN4CCSCC4)c4c3CN(C(=O)C(N)=O)CC4)ccc2Cl)ccc1Cl` [CatS_87] stands 25 nM; under `COC(=O)CNCc1cc(C#Cc2cc(-c3nn(CCCN4CCOC[C@@H]4C)c4c3CN(C(N)=O)CC4)ccc2Cl)ccc1Cl` [CatS_109], 25 nM; under `CC1CCN(CCSc2cc(-c3nn(C[C@@H](O)CN4CCC(N5C[C@@H](O)CC5=O)CC4)c4c3CN(S(C)(=O)=O)CC4)ccc2C(F)(F)F)CC1` [CatS_13], 58 nM.
Under `CN(Cc1ccc(Cl)cc1)Cc1ccc(C#Cc2cc(-c3nn(CCCN4CCN(c5ccccc5)CC4)c4c3CN(S(C)(=O)=O)CC4)ccc2Cl)cc1` [CatS_76] stands 72 nM; under `Cn1c(=O)n(C2CCN(CCCn3nc(-c4ccc(C(F)(F)F)cc4)c4c3CCN(C(=O)c3c[nH]cn3)C4)CC2)c2ccccc21` [CatS_3], 55 nM; under `CS(=O)(=O)N1CCc2c(c(-c3ccc(Cl)c(C#Cc4ccc(CN[C@H](CO)c5ccccc5)cc4)c3)nn2CCCN2CCN(c3ccccn3)CC2)C1` [CatS_75], 25 nM.
For the molecule `COC(=O)[C@@H]1Cc2ccc(C#Cc3cc(-c4nn(CCCN5CCOCC5)c5c4CN(S(C)(=O)=O)CC5)ccc3Cl)cc2CN1` [CatS_71], the IC50 is 65 nM.
The molecule `CC(=O)N1CCN(CCCn2nc(-c3ccc(C(F)(F)F)c(SCC(=O)N4CCOCC4)c3)c3c2CCN(S(C)(=O)=O)C3)CC1` [CatS_131] gave an IC50 of 310 nM. Compared with the last molecule, the IC50 is about 4.8-fold higher.
Under `CNCCCNC(=O)c1ccc(C#Cc2cc(-c3nn(CCCN4CCOC[C@@H]4C)c4c3CN(C(=O)C(N)=O)CC4)ccc2Cl)cc1` [CatS_111] stands 35 nM; under `CS(=O)(=O)N1CCc2c(c(-c3ccc(C(F)(F)F)c(SCC(=O)N4CCC[C@@H]4C(N)=O)c3)nn2CCCN2CCC(N3CCCC3=O)CC2)C1` [CatS_129], 85 nM.
`CCNCc1cc(C#Cc2cc(-c3nn(CCCN4CCCCC4)c4c3CN(C(=O)C(N)=O)CC4)ccc2Cl)ccc1Cl` [CatS_82] had a half-maximal inhibitory concentration (IC50) of 15 nM.
Next, `C[C@H]1COCCN1CCCn1nc(-c2ccc(Cl)c(C#Cc3ccc(Cl)c(C(=O)NC[C@@H]4CCCN4)c3)c2)c2c1CCN(C(=O)C(N)=O)C2` [CatS_101]: 25 nM; `C[C@H]1COCCN1CCCn1nc(-c2ccc(Cl)c(C#Cc3ccc(Cl)c(CNCc4ccccc4)c3)c2)c2c1CCN(C(=O)C(N)=O)C2` [CatS_102]: 15 nM.
Next, `NC(=O)N1CCc2c(c(-c3ccc(Cl)c(C#Cc4ccc(CN[C@@H]5CCCc6ccccc65)cc4)c3)nn2CCCN2CCOCC2)C1` [CatS_80]: 98 nM.
Molecule `COc1ccccc1C1CCN(C[C@H](O)Cn2nc(-c3ccc(C(F)(F)F)c(SCCN4CCCCC4)c3)c3c2CCNC3)CC1` [CatS_5] came in with an IC50 of 200 nM.
Next, `O=C(CO)N1CCc2c(c(-c3ccc(Cl)c(C#Cc4ccc(CNCc5ccc(Cl)cc5)cc4)c3)nn2CCCN2CCSCC2)C1` [CatS_40]: 95 nM; `CS(=O)(=O)N1CCc2c(c(-c3ccc(Cl)c(CCCN4CCOCC4)c3)nn2CCCN2CCC(N3CCCC3=O)CC2)C1` [CatS_123]: 1170 nM.
Next, `C[C@H]1COCCN1CCCn1nc(-c2ccc(Cl)c(CCc3ccc(CNCc4ccc(Cl)cc4)cc3)c2)c2c1CCN(C(=O)C(N)=O)C2` [CatS_95]: 35 nM; `CC(=O)NC1CCN(CCCn2nc(-c3ccc(Cl)c(C#Cc4ccc5c(c4)CNCC5)c3)c3c2CCN(S(C)(=O)=O)C3)CC1` [CatS_50]: 37 nM.
Under `NC(=O)C(=O)N1CCc2c(c(-c3ccc(Cl)c(C#Cc4ccc(Cl)c(C(=O)N[C@@H](CO)c5ccccc5)c4)c3)nn2CCCN2CCSCC2)C1` [CatS_89] stands 25 nM.
The molecule `CC(C)CCNCc1cc(-c2nn(CCCN3CCC(N4CCCC4=O)CC3)c3c2CN(S(C)(=O)=O)CC3)ccc1C(F)(F)F` [CatS_126] had an IC50 of 240 nM.
In turn, `CS(=O)(=O)N1CCc2c(c(-c3ccc(Cl)c(C#Cc4ccc(CNCc5ccc(Cl)cc5)cc4)c3)nn2CCCN2CCC(N3CCCC3=O)CC2)C1` [CatS_43] yielded an IC50 of 18 nM.
Next, `CC(=O)N1CCc2c(c(-c3ccc(C(F)(F)F)c(SCC(=O)N4CCCC4)c3)nn2C[C@H](O)CN2CCC(C(C)(C)O)CC2)C1` [CatS_11]: 160 nM; `C[C@H]1COCCN1CCCn1nc(-c2ccc(Cl)c(C#Cc3ccc(Cl)c(CNCCCO)c3)c2)c2c1CCN(C(N)=O)C2` [CatS_104]: 20 nM; `CS(=O)(=O)N1CCc2c(c(-c3ccc(C(F)(F)F)c(CNCc4ccc(F)cc4)c3)nn2CCCN2CCC(C3CCCCC3)CC2)C1` [CatS_26]: 15 nM.
Next, `CS(=O)(=O)N1CCc2c(c(-c3ccc(Cl)c(C#Cc4ccc(CNCC(F)(F)F)cc4)c3)nn2CCCN2CCC(N3CCCC3=O)CC2)C1` [CatS_56]: 95 nM.
Under `CC(C)=CC(=O)NCc1cc(-c2nn(CCCN(C)C)c3c2CN(C(=O)CC2CCNCC2)CC3)ccc1C(F)(F)F` [CatS_16] stands 260 nM; under `CS(=O)(=O)N1CCc2c(c(-c3ccc(Cl)c(C#Cc4ccc(C=O)cc4)c3)nn2CCCN2CCOCC2)C1` [CatS_64], 110 nM; under `NC(=O)N1CCc2c(c(-c3ccc(Cl)c(CCc4ccc(Cl)cc4)c3)nn2C[C@@H](O)CN2CCC(C3CCNCC3)CC2)C1` [CatS_117], 15 nM.
Consider `CC(=O)NC1CCN(CCCn2nc(-c3ccc(C(F)(F)F)c(SCCO)c3)c3c2CCN(S(C)(=O)=O)C3)CC1` [CatS_132], for which inhibition was half-maximal at 340 nM (IC50).
Under `C[C@H]1COCCN1CCCn1nc(-c2ccc(Cl)c(C#Cc3ccc(C(=O)NCCN4CCOCC4)cc3)c2)c2c1CCN(C(=O)C(N)=O)C2` [CatS_100] stands 45 nM; under `CS(=O)(=O)N1CCc2c(c(-c3ccc(Cl)c(C#Cc4ccc(CN[C@@H]5c6ccccc6C[C@@H]5O)cc4)c3)nn2CCCN2CCN(c3ccccc3)CC2)C1` [CatS_77], 35 nM; under `CC(C)(C)C1CCN(CCCn2nc(-c3ccc(C(F)(F)F)c(CNCc4ccc(F)cc4)c3)c3c2CCN(S(C)(=O)=O)C3)CC1` [CatS_12], 30 nM.
